Reference: ChEMBL document CHEMBL1137358, “Synthetic inhibitors of cytochrome P-450 2A6: inhibitory activity, difference spectra, mechanism of inhibition, and protein cocrystallization” (J Med Chem, 2006)

Key:
Cytochrome P450 3A4 = Cytochrome P450 3A4 (Homo sapiens, UniProt P08684); test: Inhibition of human CYP3A4
CYP2A6 over CYP2C19 = test: Selectivity for CYP2A6 over CYP2C19; conditions: human
CYP2A6 over CYP2C9 = test: Selectivity for CYP2A6 over CYP2C9; conditions: human
CYP2A6 over CYP3A4 = test: Selectivity for CYP2A6 over CYP3A4; conditions: human
Cytochrome P450 2C9 = Cytochrome P450 2C9 (Homo sapiens, UniProt P11712); test: Inhibition of human CYP2C9
Chain of Cytochrome P450 2C9 (P11712 whole entry): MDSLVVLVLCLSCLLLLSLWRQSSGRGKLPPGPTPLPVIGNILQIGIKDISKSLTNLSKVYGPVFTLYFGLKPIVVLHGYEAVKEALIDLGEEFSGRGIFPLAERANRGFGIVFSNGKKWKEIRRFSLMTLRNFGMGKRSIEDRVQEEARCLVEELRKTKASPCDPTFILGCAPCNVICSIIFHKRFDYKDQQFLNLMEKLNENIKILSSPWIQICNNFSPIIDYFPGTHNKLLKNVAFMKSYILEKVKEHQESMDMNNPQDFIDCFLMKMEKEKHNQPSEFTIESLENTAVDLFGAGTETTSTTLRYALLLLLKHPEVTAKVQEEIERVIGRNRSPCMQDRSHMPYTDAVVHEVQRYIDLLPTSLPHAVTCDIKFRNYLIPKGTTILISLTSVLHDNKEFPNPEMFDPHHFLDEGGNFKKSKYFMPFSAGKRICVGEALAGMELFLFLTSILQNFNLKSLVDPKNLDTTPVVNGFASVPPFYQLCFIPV

Cytochrome P450 2A6 [1] = target: T1, Cytochrome P450 2A6 (Homo sapiens, UniProt P11509); test: Inhibition of human CYP2A6
T1 sequence (P11509 whole entry): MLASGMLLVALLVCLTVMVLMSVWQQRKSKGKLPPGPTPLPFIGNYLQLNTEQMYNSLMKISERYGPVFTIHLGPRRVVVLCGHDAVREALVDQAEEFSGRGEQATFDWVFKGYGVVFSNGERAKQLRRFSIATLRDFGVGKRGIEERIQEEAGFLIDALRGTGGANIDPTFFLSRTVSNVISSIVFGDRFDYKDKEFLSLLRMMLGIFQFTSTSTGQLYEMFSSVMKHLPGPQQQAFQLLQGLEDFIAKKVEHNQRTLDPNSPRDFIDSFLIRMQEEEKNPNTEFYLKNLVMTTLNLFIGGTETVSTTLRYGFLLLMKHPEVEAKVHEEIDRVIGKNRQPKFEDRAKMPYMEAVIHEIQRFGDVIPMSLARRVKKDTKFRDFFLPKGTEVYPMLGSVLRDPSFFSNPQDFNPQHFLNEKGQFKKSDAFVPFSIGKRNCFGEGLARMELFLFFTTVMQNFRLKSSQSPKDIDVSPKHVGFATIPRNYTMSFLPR

Cytochrome P450 2C19 = Cytochrome P450 2C19 (Homo sapiens, UniProt P33261); test: Inhibition of human CYP2C19
Chain of Cytochrome P450 2C19 (P33261 whole entry): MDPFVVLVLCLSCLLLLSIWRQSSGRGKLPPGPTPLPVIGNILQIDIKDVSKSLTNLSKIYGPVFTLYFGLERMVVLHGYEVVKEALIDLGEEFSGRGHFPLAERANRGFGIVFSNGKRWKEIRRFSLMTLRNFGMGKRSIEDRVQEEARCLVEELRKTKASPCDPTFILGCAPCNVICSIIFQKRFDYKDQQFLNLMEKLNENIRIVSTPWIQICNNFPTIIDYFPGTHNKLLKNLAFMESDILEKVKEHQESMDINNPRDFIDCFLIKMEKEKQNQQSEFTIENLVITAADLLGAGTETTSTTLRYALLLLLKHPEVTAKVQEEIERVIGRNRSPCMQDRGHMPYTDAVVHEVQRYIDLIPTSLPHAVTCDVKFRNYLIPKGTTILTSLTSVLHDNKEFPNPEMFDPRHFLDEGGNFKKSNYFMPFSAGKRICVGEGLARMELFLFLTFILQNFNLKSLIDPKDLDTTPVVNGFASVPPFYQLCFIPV

Cytochrome P450 2B6 = target: T2, Cytochrome P450 2B6 (Homo sapiens, UniProt P20813); test: Inhibition of human CYP2B6
T2 sequence (P20813 whole entry): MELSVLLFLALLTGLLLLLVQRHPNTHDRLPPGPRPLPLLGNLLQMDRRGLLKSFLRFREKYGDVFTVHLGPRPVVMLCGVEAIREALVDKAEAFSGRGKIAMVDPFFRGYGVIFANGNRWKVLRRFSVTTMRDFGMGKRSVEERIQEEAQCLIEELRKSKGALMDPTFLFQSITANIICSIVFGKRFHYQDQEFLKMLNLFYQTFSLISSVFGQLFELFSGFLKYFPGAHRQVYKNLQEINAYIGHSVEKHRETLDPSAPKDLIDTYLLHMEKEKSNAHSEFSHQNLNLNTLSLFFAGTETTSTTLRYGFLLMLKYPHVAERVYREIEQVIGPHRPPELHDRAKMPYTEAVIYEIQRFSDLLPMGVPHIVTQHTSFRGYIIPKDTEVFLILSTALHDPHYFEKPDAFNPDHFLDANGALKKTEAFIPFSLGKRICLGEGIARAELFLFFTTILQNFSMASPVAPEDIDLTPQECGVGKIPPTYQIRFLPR

CYP2A6 over CYP2E1 = test: Selectivity for CYP2A6 over CYP2E1; conditions: human
[2] = (§1) Stability in human liver microsome
Cytochrome P450 2D6 = Cytochrome P450 2D6 (Homo sapiens, UniProt P10635); test: Inhibition of human CYP2D6
Chain of Cytochrome P450 2D6 (P10635 whole entry): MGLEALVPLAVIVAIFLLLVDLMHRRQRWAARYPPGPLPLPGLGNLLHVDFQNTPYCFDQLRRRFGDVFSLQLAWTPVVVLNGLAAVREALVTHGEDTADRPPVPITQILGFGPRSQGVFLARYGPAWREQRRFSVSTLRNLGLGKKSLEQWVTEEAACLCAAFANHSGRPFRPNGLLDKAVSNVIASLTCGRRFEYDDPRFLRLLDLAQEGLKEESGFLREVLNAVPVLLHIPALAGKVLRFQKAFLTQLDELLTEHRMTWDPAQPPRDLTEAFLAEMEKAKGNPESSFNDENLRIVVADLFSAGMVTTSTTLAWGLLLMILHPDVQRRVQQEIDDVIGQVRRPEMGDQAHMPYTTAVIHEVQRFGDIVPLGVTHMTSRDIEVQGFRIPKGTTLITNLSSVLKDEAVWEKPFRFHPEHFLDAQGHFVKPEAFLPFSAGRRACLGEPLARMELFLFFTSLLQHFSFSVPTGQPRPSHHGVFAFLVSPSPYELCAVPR

Mus musculus = organism: Mus musculus; test: (§2) Stability in mouse liver microsome; conditions: microsomes
Cytochrome P450 2E1 = Cytochrome P450 2E1 (Homo sapiens, UniProt P05181); test: Inhibition of human CYP2E1
Chain of Cytochrome P450 2E1 (P05181 whole entry): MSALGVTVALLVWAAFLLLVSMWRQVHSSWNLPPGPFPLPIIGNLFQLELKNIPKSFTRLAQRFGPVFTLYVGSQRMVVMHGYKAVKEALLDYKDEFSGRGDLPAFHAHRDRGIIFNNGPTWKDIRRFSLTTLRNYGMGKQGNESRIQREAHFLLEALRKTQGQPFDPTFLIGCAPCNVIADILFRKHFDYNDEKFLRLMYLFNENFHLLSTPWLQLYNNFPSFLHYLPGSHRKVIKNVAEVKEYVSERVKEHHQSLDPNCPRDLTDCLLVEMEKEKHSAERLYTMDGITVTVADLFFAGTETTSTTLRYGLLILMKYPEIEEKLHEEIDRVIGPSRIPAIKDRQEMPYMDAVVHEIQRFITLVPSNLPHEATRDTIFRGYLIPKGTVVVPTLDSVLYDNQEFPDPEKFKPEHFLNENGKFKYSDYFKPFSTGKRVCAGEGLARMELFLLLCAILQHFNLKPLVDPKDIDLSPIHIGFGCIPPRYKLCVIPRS

CYP2A6 over CYP2D6 = test: Selectivity for CYP2A6 over CYP2D6; conditions: human
CYP2A6 over CYP2B6 = test: Selectivity for CYP2A6 over CYP2B6
Liver microsomes = test: as §1; conditions: microsomes
[3] = as §2
Cytochrome P450 2A6 [4] = target: T1, Cytochrome P450 2A6; test: Displacement of coumarin from CYP2A6 at 100 uM; assay type: ADME

Chain of Cytochrome P450 3A4 (P08684 whole entry): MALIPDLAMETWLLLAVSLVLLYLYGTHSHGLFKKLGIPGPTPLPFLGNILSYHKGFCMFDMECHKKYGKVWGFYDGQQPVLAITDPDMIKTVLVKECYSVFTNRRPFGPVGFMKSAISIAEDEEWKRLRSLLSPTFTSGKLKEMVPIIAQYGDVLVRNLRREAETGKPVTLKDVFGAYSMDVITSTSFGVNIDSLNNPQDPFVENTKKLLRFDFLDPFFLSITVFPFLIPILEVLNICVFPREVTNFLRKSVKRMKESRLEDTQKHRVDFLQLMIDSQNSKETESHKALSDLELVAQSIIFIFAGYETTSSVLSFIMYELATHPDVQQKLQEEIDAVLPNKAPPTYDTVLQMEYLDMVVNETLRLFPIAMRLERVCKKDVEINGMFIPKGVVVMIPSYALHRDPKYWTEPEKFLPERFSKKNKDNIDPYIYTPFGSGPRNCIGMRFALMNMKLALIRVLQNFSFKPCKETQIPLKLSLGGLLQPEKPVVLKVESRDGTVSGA

Compound | Ki (Cytochrome P450 3A4) [µM] | selectivity ratio (CYP2A6 over CYP2C19) | selectivity ratio (CYP2A6 over CYP2C9) | selectivity ratio (CYP2A6 over CYP3A4) | Ki (Cytochrome P450 2C9) [µM] | Ki (Cytochrome P450 2A6 [1]) [µM] | Ki (Cytochrome P450 2C19) [µM] | Ki (Cytochrome P450 2B6) [µM] | selectivity ratio (CYP2A6 over CYP2E1) | half-life ([2]; liver microsomes) [h] | Ki (Cytochrome P450 2D6) [µM] | Stability (Mus musculus) | Ki (Cytochrome P450 2E1) [µM] | selectivity ratio (CYP2A6 over CYP2D6) | selectivity ratio (CYP2A6 over CYP2B6) | half-life ([3]; liver microsomes) [h] | Stability (Liver microsomes) | other results
CNCc1ccc(-c2cccnc2)o1 | > 400 | 19 | 48 | > 250 | 38.1 | 0.8 | 15.3 | 179 | > 250 | 1.1 | 45.3 | Stable | > 400 | 57 | – | – | – | –
Cc1ccsc1-c1ccc(F)nc1 | 19.6 | 32 | > 310 | 5.9 | > 400 | 0.6 | 21 | 5.9 | 285 | 1.4 | > 400 | Stable | 184 | > 310 | 9.1 | – | – | –
Cc1cscc1-c1cccnc1 | < 25 | – | – | – | 61.5 | 0.9 | 12.5 | 3.1 | – | – | 96.5 | – | 3.1 | – | – | 0.783 | – | T1/2 (Liver microsomes): 0.533 h
CN(C)CC#Cc1cccnc1 | > 400 | > 3 | > 3 | > 3 | > 400 | 67.5 | > 400 | 192 | > 3 | – | > 400 | Stable | > 400 | > 3 | 2.8 | – | Stable | –
SCc1ccc(-c2cccnc2)o1 | 3.1 | < 0.3 | – | > 4.1 | 0.4 | < 0.8 | 0.2 | 1.1 | < 0.1 | – | 0.7 | – | 0.05 | < 0.9 | > 1.5 | – | – | Activity (Cytochrome P450 2A6 [4]): Active; half-life ([2]; microsomes): 1.98 h; half-life ([3]; microsomes): 1.75 h
c1cncc(-c2ccc(C3SCCS3)o2)c1 | 1.1 | 0.1 | 0.1 | 0.1 | 1.3 | 13.9 | 0.7 | 5.3 | 0.04 | 1.53 | 38.4 | – | 0.6 | 2.8 | 0.4 | 0.4 | – | Activity (Cytochrome P450 2A6 [4]): Active
Cn1cnc(-c2cccnc2)c1 | 131 | – | – | – | 39.7 | 0.4 | 61 | 73 | 5 | – | 102 | – | 2 | – | – | 8.02 | Stable | –
c1cncc(-c2ccsc2)c1 | 28 | 81 | 69 | 40 | 48.2 | 0.7 | 55.6 | 30 | > 286 | 4.52 | 124 | Stable | > 400 | > 286 | 42 | – | – | –
CN(C)Cc1ccc(-c2cccnc2)s1 | 110 | 0.8 | 1.5 | 1.6 | 103 | 66.5 | 53 | > 400 | > 3 | – | 14.4 | – | > 400 | 0.2 | > 3 | 5.72 | Stable | –
Cc1nccn1-c1cccnc1 | – | – | – | – | – | – | – | – | – | 2.22 | – | Stable | – | – | – | – | – | –
CNCc1ccc(-c2cccnc2)s1 | > 400 | – | – | – | 33.9 | 0.6 | 29.9 | > 400 | – | 1.6 | 56.5 | Stable | > 400 | – | – | – | – | –
NCCCc1cccnc1 | > 400 | > 30 | > 30 | > 400 | > 400 | 6.6 | > 400 | > 400 | > 30 | – | > 400 | Stable | > 400 | > 30 | > 30 | – | Stable | –
CC(=O)SCc1ccc(-c2cccnc2)o1 | 1.5 | 4.6 | 3.4 | 1.7 | 2.9 | 0.8 | 3.9 | 0.9 | 0.3 | 0.5 | 45.4 | – | 0.2 | 53 | 1 | 0.3 | – | Activity (Cytochrome P450 2A6 [4]): Not Active
